According to patent US11419918B2, “Treatment of biliary cirrhosis based on oxyntomodulin analogue GLP-1R/GCGR dual-target agonist peptide” (Shenzhen Turier Biotech Co., Ltd., priority 2017, dated 2022):
Numbered stars: 1 amine (or outer) side, 2 acyl side, 3 side chain; on linkers, the order of the positions; unused ones are H or OH. Square brackets hold non-standard residues; d marks the D form. Primed or numbered codes have the meaning given here. Side chains are listed from the residue outwards. Ends that are not written are not given here. * marks the point of attachment. C18 diacid = O=C(O)CCCCCCCCCCCCCCCCC(=O)*; γGlu = O=C(O)[C@H](CCC(=O)[*:2])N[*:1]; Stearoyl = CCCCCCCCCCCCCCCCCC(=O)*; Palmitoyl = CCCCCCCCCCCCCCCC(=O)*; Nle = CCCC[C@H](N)C(=O)O; PEG2′ = not defined here; Aib = CC(C)(N)C(=O)O

Experiments:
[1] = tested on: human hepatic stellate cells (LX-2); assay: In vitro inhibition of hepatic fibrosis: expression of activation marker α-SMA in LX-2 cells (Western Blot, β-actin internal reference); format: cell-based; conditions: 10.0 μM, 48 hours, negative control (PBS) = 100%
Method: Hepatic stellate cell strain LX-2 was selected to study and observe the effect of different doses of test substances on the expression of LX-2 cell activation marker α-SMA. Hepatic stellate cell LX-2 was laid on 35 mm cell culture plate, cultured with DMEM (high glucose)+10% FBS+1% double-antibody culture medium (Thermo Fisher), placed overnight when the cells grew to 70% convergence at 37° C. and under the condition of 5% CO2, and treated with the above GLP-1R/GCGR dual target agonist polypeptides 1-48 (dissolved in PBS) for 48 hours the next day morning to extract cell protein, carry out Western Blot, and take β-actin as internal reference and analyze the expression quantities of α-SMA and β-actin by a gray level of Image J 1.50i. PBS with the same volume as that in experimental group was added in negative control. […] The integrating gray level of α-SMA/β-actin in the negative control group was 100% to analyze the in vitro inhibition activity of hepatic fibrosis of tested polypeptide.

[2] = tested on: BDL-induced cholestasis hepatic fibrosis in rats; assay: Bile duct ligation (BDL)-induced hepatic fibrosis in rats (biliary cirrhosis rat model); format: in vivo, SD rats; conditions: 50 μg/kg subcutaneous every two days, 14 days
Method: 1. Experimental Drugs: polypeptide compounds 3, 6, 7, 10, 17, 20, 37, 38, 39, 40, 44, 46, Obeticholic Acid (Abbr. OCA, CAS:459789-99-2, purchased from Zhejiang Warrant Pharmaceutical Co., Ltd.) and Liraglutide. Saving condition was −20° C.
128 male SD rats with body weight of 200-230 g were randomly divided into sixteen groups, which were respectively:
SD rats with body weight of 200-230 g at SPF level were provided by Lanzhou University Laboratory Animal Center. After rats were quarantined in the room (SPF environment) for one week, model rat and rat in sham-operated group were subject to intraperitoneal injection and anesthesia with 0.6% pentobarbital sodium solution, and operation was performed on a super clean bench after anesthesia. Bilateral ligation was conducted on model rat after the common bile duct was separated, and ligation was not conducted on rat in sham-operated group, but only the common bile duct was separated. Administration was started from the next day of the operation.
Administration was started from the first day of the operation, and subcutaneous injection of compounds 3, 6, 7, 10, 17, 20, 37, 38, 39, 40, 44, 46 and Liraglutide with 50 μg/kg was performed every two days; intraperitoneal injection for the Obeticholic Acid administration group with 7.5 mg/kg was performed every day; as for the normal saline group, injection was performed every day. During the administration, changes in vital signs of rats were observed every day.
After the end of two weeks of administration cycle (14 days), the rats were killed to collect materials for subsequent biological determination experiments. The livers were taken out for HE dye, Sirius Red dye and IHC dye. Image-pro plus and Graph pad software were used for statistics.

Row | Substance | Relative expression of α-SMA (α-SMA/β-actin, %) [1] [%] | ALT in the serum (FIG. 6) [2] | BDL-induced hepatic fibrosis and inflammation (HE, Sirius Red, IHC sections) [2] | collagenous fiber deposition in liver (Sirius Red dyed sections, FIGS. 2, 4) [2] | content of hydroxyproline of the liver (FIG. 7) [2] | α-SMA in liver (IHC dyed sections, FIGS. 3, 5) [2]
1 | His-(D-Ser)-Gln-Gly-Thr-Phe-Thr-Ser-Asp-Tyr-Ser-Lys-Tyr-Leu-Asp-Lys(PEG2-PEG2-γGlu-CO(CH2)14CH3)-Arg-Arg-Ala-Gln-Asp-Phe-Val-Gln-Trp-Leu-Nle-Asn-Thr-Gly-Gly-Pro-Ser-Ser-Gly-Ala-Pro-Pro-Pro-Ser-NH2 (H[dS]QGTFTSDYSKYLDK([PEG2′-PEG2′-γGlu-Palmitoyl])RRAQDFVQWL[Nle]NTGGPSSGAPPPS-NH2) [Compound 37] | 29.95 | significantly inhibit | significantly reduce | significantly inhibit | significantly inhibit | significantly inhibit
2 | His-(D-Ser)-Gln-Gly-Thr-Phe-Thr-Ser-Asp-Tyr-Ser-Lys-Tyr-Leu-Asp-Aib-Lys(PEG2-PEG2-CO(CH2)16CO2H)-Arg-Ala-Gln-Asp-Phe-Val-Gln-Trp-Leu-Met-Asn-Thr-Gly-Gly-Pro-Ser-Ser-Gly-Ala-Pro-Pro-Pro-Ser-NH2 (H[dS]QGTFTSDYSKYLD[Aib]K([PEG2′-PEG2′-C18 diacid])RAQDFVQWLMNTGGPSSGAPPPS-NH2) [Compound 10] | 39.49 | significantly inhibit | significantly reduce | significantly inhibit | significantly inhibit | significantly inhibit
3 | His-(D-Ser)-Gln-Gly-Thr-Phe-Thr-Ser-Asp-Lys(PEG2-PEG2-CO(CH2)16CO2H-Ser-Lys-Tyr-Leu-Asp-Aib-Arg-Arg-Ala-Gln-Asp-Phe-Val-Gln-Trp-Leu-Nle-Asn-Thr-Gly-Gly-Pro-Ser-Ser-Gly-Ala-Pro-Pro-Pro-Ser-NH2 (H[dS]QGTFTSDK([PEG2′-PEG2′-C18 diacid])SKYLD[Aib]RRAQDFVQWL[Nle]NTGGPSSGAPPPS-NH2) [Compound 46] | 36.84 | significantly inhibit | significantly reduce | significantly inhibit | significantly inhibit | significantly inhibit
4 | His-(D-Ser)-Gln-Gly-Thr-Phe-Thr-Ser-Asp-Tyr-Ser-Lys(PEG2-PEG2-γGlu-CO(CH2)16CO2H)-Lys-Leu-Asp-Aib-Arg-Arg-Ala-Gln-Asp-Phe-Val-Gln-Trp-Leu-Met-Asn-Thr-Gly-Gly-Pro-Ser-Ser-Gly-Ala-Pro-Pro-Pro-Ser-NH2 (H[dS]QGTFTSDYSK([PEG2′-PEG2′-γGlu-C18 diacid])KLD[Aib]RRAQDFVQWLMNTGGPSSGAPPPS-NH2) [Compound 20] | 28.39 | significantly inhibit | significantly reduce | significantly inhibit | significantly inhibit | significantly inhibit
5 | His-(D-Ser)-Gln-Gly-Thr-Phe-Thr-Ser-Asp-Tyr-Ser-Lys-Tyr-Leu-Asp-Lys(PEG2-PEG2-γGlu-CO(CH2)16CO2H)-Arg-Arg-Ala-Gln-Asp-Phe-Val-Gln-Trp-Leu-Leu-Asn-Thr-Gly-Gly-Pro-Ser-Ser-Gly-Ala-Pro-Pro-Pro-Ser-NH2 (H[dS]QGTFTSDYSKYLDK([PEG2′-PEG2′-γGlu-C18 diacid])RRAQDFVQWLLNTGGPSSGAPPPS-NH2) [Compound 39] | 41.68 | significantly inhibit | significantly reduce | significantly inhibit | significantly inhibit | significantly inhibit
6 | His-(D-Ser)-Gln-Gly-Thr-Phe-Thr-Ser-Asp-Tyr-Ser-Lys-Tyr-Leu-Asp-Aib-Lys(PEG2-PEG2-γGlu-CO(CH2)16CO2H)-Arg-Ala-Gln-Asp-Phe-Val-Gln-Trp-Leu-Met-Asn-Thr-Gly-Gly-Pro-Ser-Ser-Gly-Ala-Pro-Pro-Pro-Ser-NH2 (H[dS]QGTFTSDYSKYLD[Aib]K([PEG2′-PEG2′-γGlu-C18 diacid])RAQDFVQWLMNTGGPSSGAPPPS-NH2) [Compound 7] | 40.52 | significantly inhibit | significantly reduce | significantly inhibit | significantly inhibit | significantly inhibit
7 | His-(D-Ser)-Gln-Gly-Thr-Phe-Thr-Ser-Asp-Tyr-Ser-Lys-Tyr-Leu-Asp-Lys(PEG2-PEG2-γGlu-CO(CH2)16CO2H)-Arg-Arg-Ala-Gln-Asp-Phe-Val-Gln-Trp-Leu-Nle-Asn-Thr-Gly-Gly-Pro-Ser-Ser-Gly-Ala-Pro-Pro-Pro-Ser-NH2 (H[dS]QGTFTSDYSKYLDK([PEG2′-PEG2′-γGlu-C18 diacid])RRAQDFVQWL[Nle]NTGGPSSGAPPPS-NH2) [Compound 38] | 40.55 | significantly inhibit | significantly reduce | significantly inhibit | significantly inhibit | significantly inhibit
8 | His-(D-Ser)-Gln-Gly-Thr-Phe-Thr-Ser-Asp-Tyr-Ser-Lys-Tyr-Leu-Asp-Lys(PEG2-PEG2-γGlu-CO(CH2)14CH3)-Arg-Arg-Ala-Gln-Asp-Phe-Val-Gln-Trp-Leu-Met-Asn-Thr-Gly-Gly-Pro-Ser-Ser-Gly-Ala-Pro-Pro-Pro-Ser-NH2 (H[dS]QGTFTSDYSKYLDK([PEG2′-PEG2′-γGlu-Palmitoyl])RRAQDFVQWLMNTGGPSSGAPPPS-NH2) [Compound 6] | 29.19 | significantly inhibit | significantly reduce | significantly inhibit | significantly inhibit | significantly inhibit
9 | His-(D-Ser)-Gln-Gly-Thr-Phe-Thr-Ser-Asp-Tyr-Ser-Lys-Tyr-Leu-Asp-Lys(PEG2-PEG2-γGlu-CO(CH2)14CH3)-Arg-Arg-Ala-Gln-Asp-Phe-Val-Gln-Trp-Leu-Leu-Asn-Thr-Gly-Gly-Pro-Ser-Ser-Gly-Ala-Pro-Pro-Pro-Ser-NH2 (H[dS]QGTFTSDYSKYLDK([PEG2′-PEG2′-γGlu-Palmitoyl])RRAQDFVQWLLNTGGPSSGAPPPS-NH2) [Compound 40] | 37.55 | significantly inhibit | significantly reduce | significantly inhibit | significantly inhibit | significantly inhibit
10 | His-(D-Ser)-Gln-Gly-Thr-Phe-Thr-Ser-Asp-Tyr-Ser-Lys(PEG2-PEG2-CO(CH2)16CH3)-Lys-Leu-Asp-Aib-Arg-Arg-Ala-Gln-Asp-Phe-Val-Gln-Trp-Leu-Met-Asn-Thr-Gly-Gly-Pro-Ser-Ser-Gly-Ala-Pro-Pro-Pro-Ser-NH2 (H[dS]QGTFTSDYSK([PEG2′-PEG2′-Stearoyl])KLD[Aib]RRAQDFVQWLMNTGGPSSGAPPPS-NH2) [Compound 3] | 32.25 | significantly inhibit | significantly reduce | significantly inhibit | significantly inhibit | significantly inhibit
